Data as given in patent publication US20230201323A1, “VACCINE FORMULATIONS” (EUUALY S.A., priority 2020, published 2023).
Where a SMILES comes first, the peptide text is derived from it.

Experiments:
C57BL/6 female mice = system: C57BL/6 female mice
Experimental: C57BL/6 female mice are treated with an injection of 100 μl containing 200 μg of peptide encompassing amino acid residues […], namely:
and 100 μl of complete Freund's adjuvant. In addition, […] of pertussis toxin is administered intraperitoneally on days 0 and 2 to permeate the blood-brain barrier.
One month after the date of disease induction, the spinal cord is examined for inflammatory infiltrates. Tissues are fixed in formaldehyde and stained with hematoxilin-eosin for cell counting. T cells are identified using an anti-CD3 antibody. Demyelination is detected by staining with Luxol Fast Blue (LFB).
To establish that cells of the present invention exert a suppressive effect on pathogenic T cells, two group of C57BL/6 female mice was treated by 4 weekly subcutaneous injections of 100 μg of peptide
corresponding to peptide of SEQ ID NO:5 but containing a redox motif (in bold). These injections were made with a formulation containing aluminum hydroxide as adjuvant.
A second group of mice immunized with peptide of SEQ ID NO:6 was then treated as in the positive control group, namely peptide of SEQ ID:5 with complete Freund's adjuvant and pertussis toxin.

[1] = system: AQP4-specific CD4+ T cells; assay: Phenotype of CD4+ T cells from AQP4 KO C57BL/6 mice immunized with AQP4 peptide; type: in vivo
Experimental: The C57BL/6 (H-2b) strain is the elective animal model as its natural repertoire of CD4+ T cells contains cells activable by immunisation with AQP4 epitopes whose sequences are entirely superposable to those activating human CD4+ T cells. Besides, the homology between human and mouse AQP4 is 93%. However, due to natural tolerance to AQP4, it remains difficult to generate T cells with a pathogenic potential. Therefore, C57BL/6 mice lacking expression of AQP4 (AQP4 KO) are used.
is used at 100 μg emulsified in complete Freund's adjuvant to immunize AQP4 KO C57BL/6 mice in the footpad, followed by 3 injections of 100 μg in incomplete Freund's adjuvant at 10-days intervals. Four weeks after the last injection, the mice are sacrificed and splenocytes are prepared. After separation of CD4+ T cells from the bulk splenocytes, lymphocytes specific for peptide of SEQ ID NO:1 are isolated by incubation with magnetic beads coated with class II (H2b) molecules loaded with peptide of SEQ ID NO:1.
AQP4-specific CD4+ T cells are then phenotyped and found to belong to the Th17 subtype.
A similar experiment is carried out in AQP4 KO C57BL/6 mice immunized with the same peptide, but containing a redox motif (in bold) in its flanking residues (SEQ ID NO:2), and with alum instead of CFA/IFA

wildtype C57BL/6 mice = assay: IV transfer of peptide-elicited CD4+ T cells into wildtype C57BL/6 mice, spinal cord examination; type: in vivo; settings: 10^6 peptide-elicited CD4+ T cells per mouse IV, spinal cord ten days afterwards
Experimental: Such cells are then administered by IV injection in wildtype C57BL/6 mice (10^6 cells per mouse). Ten days afterwards, mice are sacrificed and the spinal cord isolated.
In a control experiment, 10^6 cells are administered by IV injection in wildtype C57BL/6 mice.

[2] = system: Thy1.1 CD4+ T cells obtained by immunisation with peptide of SEQ ID NO:1; assay: Mixed culture of Thy1.1 and Thy1.2 CD4+ T cells on antigen-presenting cells loaded with peptide of SEQ ID NO:1; type: cell-based, C57BL/6 mice; settings: 1/1 mixture with Thy1.2 CD4+ T cells elicited by SEQ ID NO:2, 7 days of culture
Experimental: Next, to determine whether CD4+ T cells obtained by immunisation with peptide of SEQ ID NO:2 could suppress pathogenic CD4+ T cells obtained by immunisation with peptide of SEQ ID NO:1, mixed cultures were performed with antigen-presenting cells loaded with peptide of SEQ ID NO:1. For such in vitro experiments, the two CD4+ T cell populations were obtained from C57BL/6 mice expressing either the Thy1.1 or the Thy1.2 surface phenotypic marker, identified by specific antibodies.
Dendritic cells converted from peripheral blood monocytes were used as antigen-presenting cells. Thus, 50×10^6 cells were incubated with 10 μg of peptide of SEQ ID NO:1 for 16 h at room temperature, washed and then incubated with a 1/1 mixture of Thy1.1 CD4+ T cells obtained by immunisation with peptide of SEQ ID NO:1 and Thy1.2 CD4+ T cells obtained by immunisation with peptide of SEQ ID NO:2. The phenotype of each CD4+ T cell population was then evaluated after 7 days of culture.

CD4+ T cells = assay: Phenotype and cytokine production of Balb/c CD4+ T cells expanded in vitro with Staph. aureus nuclease peptides; type: cell-based, Balb/c mice; settings: after 2 cycles of stimulation on peptide-loaded antigen-presenting cells
Experimental: Balb/c mice kept under open conditions (not pathogen-free) show specific antibodies and CD4+ T cells towards Staph. aureus nuclease. Splenocytes are obtained from such mice to prepare CD4+ T cells. Such cells are cultured and expanded in the presence of antigen-presenting cells loaded with either peptide of sequence
After 2 cycles of stimulation, the phenotype and cytokine production of cells are examined. […] Other markers of CD4+ T cells with an immune suppressive function include DLL4 (Rubey et al. Diabetes 2020 69(5):915-926, CTLA2 (Sugita et al. J Immunol 2009 183(8):5013-22), TGF-beta2 (Mir et al. Immunology 2015 146(4):547-56, arginase (Khoshnejad et al. Mol Ther Methods Clin Dev 2020 18:652-663 and meteorin (Baht et al. Nat Metab 2020 2(3):278-289)

[3] = system: cells obtained by stimulation with peptide of SEQ ID NO:7; assay: Coculture of CFSE-labelled SEQ ID NO:7 cells with SEQ ID NO:8 cells, proliferation by CFSE dilution; type: cell-based, Balb/c mice
Experimental: Cells obtained by stimulation with peptide of SEQ ID NO:7 were labelled with CFSE and cultured together with cells obtained with peptide of SEQ ID NO:8 at a 1 to 1 ratio on antigen-presenting cells loaded with peptide of SEQ ID NO:7.
After 7 days of coculture, the proliferation of cells was measured by CFSE dilution.

NOD mice = assay: Insulitis by pancreas histology in immunized NOD mice; type: in vivo; settings: female NOD mice, 100 μg in aluminium hydroxide four times at a week interval from six weeks old, histology at week 15
Excerpt: Non-obese diabetes (NOD) mice are the most used animal model for diabetes due to the spontaneous development of insulitis, hyperglycaemia and diabetes in a context wherein both inflammation and auto-immunity play determining roles. The local lesion, insulitis, starts accumulating after a few weeks, so that therapeutic interventions should be considered as suppressive rather than preventive.
Six-weeks old female NOD mice are immunized with a peptide made of a class II-restricted T cell epitope of GAD65 (319-333: ILEVKQKGFVPFLVS, SEQ ID NO:3) or with the same peptide containing a redox motif (bold figures) in its flanking residues
Immunisation is carried out using 100 μg of peptide of SEQ ID NO:4 in aluminium hydroxide, four times at a week interval. Control mice receive peptide of SEQ ID NO:3 according to the same injection schedule.
Mice are then sacrificed at week 15, the pancreas is isolated and evaluated by histology to identify insulitis.

[4] = system: CD4+ obtained from the spleen of mice immunized with peptide of SEQ ID NO:3; assay: Co-culture of CFSE-labelled CD4+ cells (SEQ ID NO:3) with CD4+ T cells from mice immunized with SEQ ID NO:4; type: cell-based, NOD mice
[5] = AQP4 KO C57BL/6 mice immunized with peptide in alum

## CC[C@H](C)[C@H](NC(=O)CNC(=O)[C@@H](NC(=O)[C@H](CS)NC(=O)[C@@H]1CCCN1C(=O)[C@H](Cc1ccc(O)cc1)NC(=O)[C@H](CS)NC(=O)[C@@H](N)Cc1c[nH]cn1)[C@@H](C)O)C(=O)N[C@@H](CC(C)C)C(=O)N[C@@H](CC(=O)O)C(=O)N[C@@H](CO)C(=O)N[C@H](C(=O)NCC(=O)N[C@@H](CCCNC(=N)N)C(=O)N[C@@H](Cc1ccccc1)C(=O)N[C@@H](Cc1ccccc1)C(=O)N[C@@H](CO)C(=O)NCC(=O)O)[C@@H](C)CC [SEQ ID NO:6, HCYPCTGILDSIGRFFSG] (H-HCYPCTGILDSIGRFFSG-OH)
C57BL/6 female mice; 4 weekly subcutaneous injections of 100 μg with aluminum hydroxide, no disease induction
  signs of disease after immunisation alone: no signs of disease

## HCPYCSIMVAFKGVWTQAFWKAV (AQP4redox; (9)..(20) core epitope) [SEQ ID NO:2, same AQP4 peptide containing a redox motif in its flanking residues]
[1]; [5]
  factors produced by CD4+ T cells obtained from the spleen: PGE2 (prostaglandin E2) and IL-10
  markers characterizing CD4+ T cells obtained from the spleen: TIGIT and CTLA2
Wildtype C57BL/6 mice
  spinal cord inflammatory lesions / infiltration: no inflammatory lesions or T lymphocytes
[2]
  phenotype of Thy1.1 CD4+ T cells (SEQ ID NO:1-elicited) in mixed culture: lost their phenotypic characteristics of Th17 cells
  proliferation of Thy1.1 CD4+ T cells (SEQ ID NO:1-elicited) in mixed culture: no proliferation

## HCYPCHNTHEQHLRKS (Sa Nucleaseredox) [SEQ ID NO:8, Staph. aureus nuclease peptide containing a redox motif]
CD4+ T cells
  cytokine production of cells obtained by stimulation: IL-4, IL-10, IL-13 and amphiregulin (AREG)
  surface expression on cells obtained by stimulation: TIGIT and BLIMP-1
[3]; 1 to 1 ratio, antigen-presenting cells loaded with SEQ ID NO:7, 7 days of coculture
  proliferation of SEQ ID NO:7-obtained cells in presence of SEQ ID NO:8-obtained cells (CFSE dilution): do not proliferate
[3]; 7 days of coculture on antigen-presenting cells loaded with SEQ ID NO:7
  phenotype of SEQ ID NO:8-obtained cells after coculture: unchanged phenotype

## HCYPCILEVKQKGFVPF (GAD65redox) [SEQ ID NO:4]
NOD mice
  islets with no sign of inflammation or cellular infiltrate: > 70%
[4]; cells recovered from co-culture with SEQ ID NO:4-elicited CD4+ T cells
  capacity of recovered CFSE-labeled cells to proliferate upon presentation of cognate epitope (SEQ ID NO:3): lost their capacity to proliferate
[4]; co-culture with CD4+ T cells from spleen of mice immunized with SEQ ID NO:4
  reduction in numbers of CFSE-labelled CD4+ cells (SEQ ID NO:3) by co-culture: circa 5%

## ILEVKQKGFVPFLVS (GAD65 epitope) [SEQ ID NO:3, reference compound]
NOD mice
  islets with no sign of inflammation or cellular infiltrate: the reverse

## NTHEQHLRKS (Sa Nuclease) [SEQ ID NO:7, Staph. aureus nuclease peptide, no redox motif, reference compound]
CD4+ T cells
  cytokine production of cells obtained by stimulation: interferon gamma (IFN-γ)
  phenotype of cells obtained by stimulation: characteristics of Th1 cells

## SIMVAFKGVWTQAFWKAV (AQP4 epitope; (4)..(15) core epitope) [SEQ ID NO:1, peptide encompassing amino acid residues 21-38 of AQP4, no redox motif, reference compound]
[1]; AQP4 KO C57BL/6 mice, 100 μg in CFA then 3 x 100 μg in IFA, splenocytes four weeks after last injection
  subtype of AQP4-specific CD4+ T cells: Th17 subtype
Wildtype C57BL/6 mice
  spinal cord inflammatory lesions / infiltration: Infiltration with inflammatory cells, including AQP4-specific CD4+ T cells is observed

## TGILDSIGRFFSG (MBP) [SEQ ID NO:5]
C57BL/6 female mice; SEQ ID NO:5 = disease induction, SEQ ID NO:6 = 4 weekly sc 100 μg in aluminum hydroxide before induction
  demyelination by Luxol Fast Blue (LFB) staining: signs of demyelination
C57BL/6 female mice; hematoxilin-eosin and anti-CD3, SEQ ID NO:5 = disease induction, SEQ ID NO:6 = 4 weekly sc 100 μg in aluminum hydroxide before induction
  T lymphocyte / inflammatory infiltrates in the spinal cord: significant infiltrates including T lymphocytes
